Measured values taken from paper PMC8625065 (Molecules, 2021).
Counter-ions that a name gives are not always drawn. Marks after values point to notes of the source that are not given here.

Columns and labels:
[1] = test system: ctDNA; test: Thermal melting experiment; assay type: binding, calf; conditions: r = [compound]/[polynucleotide] = 0.3, pH 7.0, error ±0.5 °C
Description: (§1) Compound solutions were used for measurements in aqueous buffer (pH = 7, sodium cacodylate buffer, I = 0.05 mol dm^−3). Polynucleotides were purchased as noted: poly A-poly U, poly (dAdT)2 and calf thymus (ct)DNA (Sigma-Aldrich). Polynucleotides were dissolved in Na-cacodylate buffer, I = 0.05 mol dm^−3, pH = 7. The calf thymus ctDNA was additionally sonicated and filtered through a […]. Polynucleotide concentration was determined spectroscopically as the concentration of phosphates. UV–Vis spectra were recorded on a Varian Cary 100 Bio spectrophotometer using 1cm path quartz cuvettes. Calibration experiments were performed at 25 °C and pH = 7 (I = 0.05 mol dm^−3, sodium cacodylate buffer). Thermal melting curves for DNA and their complexes with studied compounds were determined as previously described by following the absorption change at 260 nm as a function of temperature. The absorbance of the ligands was subtracted from every curve and the absorbance scale was normalized. Tm values are the midpoints of the transition curves determined from the maximum of the first derivative and checked graphically by the tangent method. The ΔTm values were calculated by subtracting the Tm of the free nucleic acid from the Tm of the complex. Every ΔTm value reported here was the average of at least two measurements. The error in ΔTm is ±0.5 °C.

[2] = test system: poly A-poly U (RNA, polymer) A/U; test: CD titration; conditions: Na+ (sodium cacodylate, I = 0.05 M); sodium cacodylate buffer pH 7, 25 °C; weak negative ICD near 300 nm, intercalation
[3] = test system: poly (dAdT)2 (DNA, polymer) AT; test: fluorescence titration, Scatchard; conditions: Na+ (sodium cacodylate, I = 0.05 M); sodium cacodylate buffer pH 7.0, 25 °C; polynucleotide concentration as phosphates; per base
[4] = test system: A549 (lung adenocarcinoma); test: MTT proliferation assay, 72 h; assay type: cell-based; conditions: Homo sapiens, A549 cells
Description: (§2) The cell lines HeLa (cervical carcinoma), SW620 (colorectal adenocarcinoma, metastatic), A549 (lung adenocarcinoma), HepG2 (hepatocellular carcinoma) and HFF (human foreskin fibroblasts) were cultured as monolayers and maintained in Dulbecco’s modified Eagle medium (DMEM), supplemented with 10% fetal bovine serum (FBS), 2mM L-glutamine, 100 U/mL penicillin and 100 μg/mL streptomycin in a humidified atmosphere with 5% CO2 at 37 °C.
(§3) Cells were seeded onto 96-well microtiter plates at a seeding density of 3000 cells/well for carcinoma cell lines, and 5000 cells/well for normal human fibroblasts. The next day, cells were treated with test agents at five different concentrations (0.01–100 µM) and further incubated for 72 h. […] Following 72 h incubation, the MTT assay was performed and measured absorbances were transformed into percentage of cell growth as described previously. Results were obtained from three independent experiments.

[5] = test system: poly (dAdT)2 (DNA, polymer) AT; test: UV thermal melting, 260 nm; conditions: Na+ (sodium cacodylate, I = 0.05 M); sodium cacodylate buffer pH 7
[6] = test system: HeLa (cervical carcinoma); test: MTT proliferation assay, 72 h; assay type: cell-based, human; conditions: for IC50: Homo sapiens, HeLa cells, MTT, 72 h
Description: as §2, §3

[7] = test system: SW620 (colorectal adenocarcinoma, metastatic); test: MTT proliferation assay, 72 h; assay type: cell-based, human; conditions: for IC50: Homo sapiens, SW-620, SW620 cells, MTT, 72 h
Description: as §2, §3

[8] = test system: HepG2 (hepatocellular carcinoma); test: MTT proliferation assay, 72 h; assay type: cell-based, human; conditions: for IC50: Homo sapiens, HepG2 cells, MTT, 72 h
Description: as §2, §3

[9] = target: p(dAdT)2 (AT-DNA); test: Fluorimetric titration, Scatchard processing; assay type: binding; conditions: p(dAdT)2, pH 7.0, sodium cacodylate buffer, I = 0.05 mol dm^-3
Description: (§4) Compound solutions were used for measurements in aqueous buffer (pH = 7, sodium cacodylate buffer, I = 0.05 mol dm^−3). Polynucleotides were purchased as noted: poly A-poly U, poly (dAdT)2 and calf thymus (ct)DNA (Sigma-Aldrich). Polynucleotides were dissolved in Na-cacodylate buffer, I = 0.05 mol dm^−3, pH = 7. The calf thymus ctDNA was additionally sonicated and filtered through a […]. Polynucleotide concentration was determined spectroscopically as the concentration of phosphates.
(§5) Fluorescence spectra were recorded on a Varian Cary Eclipse spectrophotometer at 25 °C using appropriate 1cm path quartz cuvettes. Fluorometric experiments were performed at pH = 7 (I = 0.05 mol dm^−3, sodium cacodylate buffer) by adding portions of polynucleotide solution into the solution of the studied compound. In fluorometric experiments, an excitation wavelength of λexc ≥ 300 nm was used to avoid the inner filter effect caused due to increasing absorbance of the polynucleotide. Emissions were determined in the range λem = 300–600 nm. Values for Ks obtained by processing titration data using the Scatchard equation [40], in most titrations have satisfactory correlation coefficients (≥0.98).

[10] = test system: poly(dAdT)2; test: Thermal melting experiment; assay type: binding; conditions: poly(dAdT)2, r = 0.3, pH 7.0; error ±0.5 °C
Description: as §1

[11] = test system: poly A-poly U; test: Thermal melting experiment; assay type: binding; conditions: r = 0.3, pH 7.0, error ±0.5 °C
Description: as §1

[12] = test system: HFF (human foreskin fibroblasts); test: MTT proliferation assay, 72 h, non-tumor cells; assay type: cell-based; conditions: Homo sapiens, Fibroblast; non-tumor HFF fibroblasts, MTT, 72 h
Description: as §2, §3

[13] = target: poly A-poly U (AU-RNA); test: Fluorimetric titration, Scatchard processing; assay type: binding; conditions: pH 7.0, sodium cacodylate buffer, I = 0.05 mol dm^-3
Description: as §4, §5

[14] = test system: ctDNA (calf thymus DNA); test: Fluorimetric titration, Scatchard processing; assay type: binding; conditions: pH 7.0, sodium cacodylate buffer, I = 0.05 mol dm^-3
Description: as §4, §5

[15] = test system: poly A-poly U (RNA, polymer) A/U; test: fluorescence titration, Scatchard; conditions: Na+ (sodium cacodylate, I = 0.05 M); sodium cacodylate buffer pH 7.0, 25 °C; polynucleotide concentration as phosphates; per base
[16] = test system: poly A-poly U (RNA, polymer) A/U; test: UV thermal melting, 260 nm; conditions: Na+ (sodium cacodylate, I = 0.05 M); sodium cacodylate buffer pH 7
[17] = Solubility of stock solution in water; assay type: physicochemical; conditions: c = 2 × 10^−3 mol dm^−3
Excerpt: Based upon the antiproliferative activity, several compounds from a series of novel amidine- and amidoxime-substituted heterocycles (5, 6, 8–11 and 20) were selected for the study with calf thymus DNA (ctDNA), alternating AT-DNA (poly (dAdT)2) and AU-RNA (poly A-poly U).

Row | Structure (SMILES) | logKs [3] | IC50 [4] [µM] | binding [5] | IC50 [6] [µM] | IC50 [7] [µM] | IC50 [8] [µM] | logKs [9] | logKs [13] | melting point [°C] | logKs [15] | ΔTm [1] [°C] | ΔTm [10] [°C] | ΔTm [11] [°C] | IC50 [12] [µM] | logKs [14] | other results
1 | Cl.Cl.c1cc(C2=NCCN2)ccc1OCc1cn(-c2ccc(C3=NCCN3)cc2)nn1 [Compound 5, 1-(4-(4,5-Dihydro-1H-imidazol-2-yl)-phenyl]-4-((4-(4,5-dihydro-1H-imidazol-2-yl)phenyloxy)methyl]-1H-1,2,3-triazole dihydrochloride] | 6.5 | 15.7 | yes | 0.8 | 0.22 | 0.64 | 6.5 | 7.0 | > 250 | 7.0 | 5 | 14 | 2 | < 0.01 | 5.7 | binding [16]: yes
2 | Cl.O=c1ccc2ccc(OCc3cn(-c4ccc(C5=NCCN5)cc4)nn3)cc2o1 [Compound 11, 7-((1-(4-(4,5-Dihydro-1H-imidazol-2-yl)phenyl)-1H-1,2,3-triazol-4-yl)methyloxy)-coumarin hydrochloride] | 4.9 | 4.49 | yes | 2.13 | 4.77 | 0.28 | 4.9 | 4.9 | > 250 | 4.9 | 0 | 2 | 0 | 3.14 |  | selectivity index (SI) on HepG2 ([8]; HFF versus HepG2 cells): 11

More lines, in order of falling IC50 [4], values ahead:

Row | logKs [3] | IC50 [4] [µM] | binding [5] | IC50 [6] [µM] | IC50 [7] [µM] | IC50 [8] [µM] | logKs [9] | logKs [13] | melting point [°C] | logKs [15] | Structure (SMILES) | ΔTm [1] [°C] | ΔTm [10] [°C] | ΔTm [11] [°C] | IC50 [12] [µM] | logKs [14] | other results
3 |  | 49.9 |  | 13.5 | 18 | 2.37 | 6.6 | 4.2 |  |  | c1cc(C2=NCCN2)c2ccn(Cc3cn(-c4ccc(C5=NCCN5)cc4)nn3)c2c1 [Compound 6, 1-((1-(4-(Dihydro-1H-imidazol-2-yl)phenyl)-1H-1,2,3-triazol-4-yl)methyl)-4-(dihydro-1H-imidazol-2-yl)-1H-indole dihydrochloride] | 2 | 6 | 0 | < 0.01 | 5.0 | 
4 |  | 31.4 |  | 7.15 | 7.24 | 51.3 | 4.7 ^d | 4.6 ^d | 238 to 241 |  | N/C(=N\O)c1ccc(-n2cc(COc3cccc4ccc(/C(N)=N/O)nc34)nn2)cc1 [Compound 20, (Z)-N′-Hydroxy-8-((1-(4-((Z)-N′-hydroxycarbamimidoyl)phenyl)-1H-1,2,3-triazol-4-yl)methoxy)quinoline-2-carboximidamide] | 0 | 0 | 0 |  | 4.3 ^d | selectivity index (SI) on HeLa ([6]; HFF versus HeLa cells): > 14; selectivity index (SI) on SW620 ([7]; HFF versus SW620 cells): > 14; solubility in water [17]: small aggregation
5 | 5.8 | 25.2 | yes | 10.3 | 2.69 | 9.07 | 5.8 | 5.1 | 229 to 232 | 5.1 | Cl.c1cnc2c(OCc3cn(-c4ccc(C5=NCCN5)cc4)nn3)cccc2c1 [Compound 9, 8-((1-(4-(4,5-Dihydro-1H-imidazol-2-yl)phenyl)-1H-1,2,3-triazol-4-yl)methyloxy)-quinoline hydrochloride] | 1 | 3 | 0 | < 0.01 | 5.3 | 
6 | 6.7 | 7.86 | yes | 1.9 | 1.75 | 3.55 | 6.7 |  |  |  | Cl.O=c1cc(OCc2cn(-c3ccc(C4=NCCN4)cc3)nn2)c2ccccc2o1 [Compound 10, 4-((1-(4-(4,5-Dihydro-1H-imidazol-2-yl)phenyl)-1H-1,2,3-triazol-4-yl)methyloxy)-coumarin hydrochloride] | 0 | 2 | 0 | < 0.01 |  | binding [2]: yes
